As a reminder, the aqueous solubility is the dissolved amount per volume that the medium holds.

The values that follow come from patent US10561735B2, “Solid formulations of liquid biologically active agents” (Paladin Labs Inc., priority 2004, dated 2020).

Data set [1] is described as follows: Reconstitution of lyophilized cake: time, appearance, visual stability (no precipitation or phase separation). The data set is classed as physicochemical. As to conditions: PVP-PLA 90 mg/mL, 75 mM sodium phosphate buffer pH 7.4.
Method: PVP-PDLLA (POLYMER 1 and POLYMER 2) samples were dissolved in mixtures of water and various amounts of tert-butyl alcohol (TBA). Propofol is then added to the PVP-PDLLA solution. Water is then added to the TBA/PVP-PDLLA/propofol solution to the desired final volume. Final TBA concentration in these solutions was 10-30%. Drug loading levels, % w/w of propofol/(propofol PVP-PDLLA), were also varied from 5, 7, 8, 10, 12, 15 and 20%. Solutions were then frozen in a dry ice/acetone bath and lyophilized for at least 24 hours.
PVP-PDLLA (POLYMER 1) is dissolved directly in water at concentrations between 100 to 350 mg/mL. Propofol is added to the PVP-PDLLA solution and mixed until a homogenous solution is obtained. The solution is then diluted to a concentration of 1% w/v of propofol. 7, 10 and 12% w/w drug loading levels were tested. All solutions were then filtered using 0.2 μm sterile filters and frozen in acetone/dry ice bath or in −80° C. freezer for at least 4 hours before being lyophilized for 48 hours. Solid lyophilized cakes of 7, 10 and 12% w/w were reconstituted by adding water for injection.
PVP-PDLLA (lot # POLYMER 1, POLYMER 2, POLYMER 3, POLYMER 4 and POLYMER 5) is dissolved directly in 100 mM sodium phosphate buffer, pH 7.4, at concentrations between 100 to 350 mg/mL. Propofol is added to the PVP-PDLLA solution and mixed until a homogenous solution is obtained. […]
The conditions of data set [2]: room temperature; cited from earlier work.
Data set [3] has as its system humans or animals. As to conditions: cited from earlier work.

Molecules are shown by their SMILES. Converted amounts (≈) assume the structure as drawn.

With `OCCOc1ccccc1` [2-phenoxyethanol], the “appearance after reconstitution by addition of water” value in data set [1] is “Clear solutions”.

For the molecule `CC(C)c1cccc(C(C)C)c1O` [Propofol, 2,6-bis-(1-methylethyl)phenol], the aqueous solubility in data set [2] was approximately 154 µg/mL (≈ 864 µM). Further, in data set [3] (in vivo), the half life is 10 to 15 min. For the same molecule, in data set [3] (intravenous injection of a therapeutic dose), the “time to hypnosis from the start of an administration” value was not above 40 s.

Take `Cc1ccc2ccccc2n1` [quinaldine]: the “appearance after reconstitution by addition of water” value in data set [1] was “Clear solutions”.
